Measurements reported in the NIST ThermoML archive (doi:10.1021/acs.jced.7b00335).
± gives the expanded uncertainty stated by the source.

Legend:
[1] = 100 kPa, Liquid; for viscosity: Concentric cylinders viscometry; for mass density: Vibrating tube method
[2] = xn = mol fraction of the nth substance listed; conditions: 100 kPa, Liquid, x2 = 0; for viscosity: Concentric cylinders viscometry; for mass density: Vibrating tube method

Compound: O=Cc1ccccc1 [benzaldehyde]
- viscosity ([1]; 293.15 K): 1.52 ± 0.06 mPa·s
- mass density ([1]; 293.15 K): 1046.3 ± 1 kg/m3
- viscosity ([1]; 298.15 K): 1.41 ± 0.06 mPa·s
- mass density ([1]; 298.15 K): 1041.7 ± 1 kg/m3
- viscosity ([1]; 303.15 K): 1.31 ± 0.05 mPa·s
- mass density ([1]; 303.15 K): 1037.1 ± 1 kg/m3
- viscosity ([1]; 308.15 K): 1.22 ± 0.05 mPa·s
- mass density ([1]; 308.15 K): 1032.4 ± 1 kg/m3
- viscosity ([1]; 313.15 K): 1.15 ± 0.05 mPa·s
- mass density ([1]; 313.15 K): 1027.9 ± 1 kg/m3
- viscosity ([1]; 318.15 K): 1.09 ± 0.04 mPa·s
- mass density ([1]; 318.15 K): 1023.4 ± 1 kg/m3
- viscosity ([1]; 323.15 K): 1.03 ± 0.04 mPa·s
- mass density ([1]; 323.15 K): 1019.1 ± 1 kg/m3

Compound: CCC(C)O (stereo not drawn) [butan-2-ol]
- viscosity ([1]; 293.15 K): 3.67 ± 0.15 mPa·s
- mass density ([1]; 293.15 K): 806.7 ± 1 kg/m3
- viscosity ([1]; 298.15 K): 3.04 ± 0.12 mPa·s
- mass density ([1]; 298.15 K): 802.7 ± 1 kg/m3
- viscosity ([1]; 303.15 K): 2.54 ± 0.1 mPa·s
- mass density ([1]; 303.15 K): 798.4 ± 1 kg/m3
- viscosity ([1]; 308.15 K): 2.13 ± 0.09 mPa·s
- mass density ([1]; 308.15 K): 794.1 ± 1 kg/m3
- viscosity ([1]; 313.15 K): 1.8 ± 0.07 mPa·s
- mass density ([1]; 313.15 K): 789.8 ± 1 kg/m3
- viscosity ([1]; 318.15 K): 1.54 ± 0.06 mPa·s
- mass density ([1]; 318.15 K): 785.2 ± 1 kg/m3
- viscosity ([1]; 323.15 K): 1.33 ± 0.05 mPa·s
- mass density ([1]; 323.15 K): 780.6 ± 1 kg/m3

Compound: CCC(C)O (stereo not drawn) [butan-2-ol] + O=Cc1ccccc1
- viscosity ([2]; 293.15 K): 3.67 ± 0.15 mPa·s
- mass density ([2]; 293.15 K): 806.7 ± 1 kg/m3
- viscosity ([2]; 298.15 K): 3.04 ± 0.12 mPa·s
- mass density ([2]; 298.15 K): 802.7 ± 1 kg/m3
- viscosity ([2]; 303.15 K): 2.54 ± 0.1 mPa·s
- mass density ([2]; 303.15 K): 798.4 ± 1 kg/m3
- viscosity ([2]; 308.15 K): 2.13 ± 0.09 mPa·s
- mass density ([2]; 308.15 K): 794.1 ± 1 kg/m3
- viscosity ([2]; 313.15 K): 1.8 ± 0.07 mPa·s
- mass density ([2]; 313.15 K): 789.8 ± 1 kg/m3
- viscosity ([2]; 318.15 K): 1.54 ± 0.06 mPa·s
- mass density ([2]; 318.15 K): 785.2 ± 1 kg/m3
- viscosity ([2]; 323.15 K): 1.33 ± 0.05 mPa·s
- mass density ([2]; 323.15 K): 780.6 ± 1 kg/m3

Compound: CCCC(C)O (stereo not drawn) [pentan-2-ol]
- viscosity ([1]; 293.15 K): 3.97 ± 0.16 mPa·s
- mass density ([1]; 293.15 K): 809.3 ± 1 kg/m3
- viscosity ([1]; 298.15 K): 3.32 ± 0.13 mPa·s
- mass density ([1]; 298.15 K): 805.3 ± 1 kg/m3
- viscosity ([1]; 303.15 K): 2.81 ± 0.11 mPa·s
- mass density ([1]; 303.15 K): 801.2 ± 1 kg/m3
- viscosity ([1]; 308.15 K): 2.37 ± 0.1 mPa·s
- mass density ([1]; 308.15 K): 797 ± 1 kg/m3
- viscosity ([1]; 313.15 K): 1.99 ± 0.08 mPa·s
- mass density ([1]; 313.15 K): 792.7 ± 1 kg/m3
- viscosity ([1]; 318.15 K): 1.66 ± 0.07 mPa·s
- mass density ([1]; 318.15 K): 788.4 ± 1 kg/m3
- viscosity ([1]; 323.15 K): 1.39 ± 0.06 mPa·s
- mass density ([1]; 323.15 K): 784 ± 1 kg/m3

Compound: CCCC(C)O (stereo not drawn) [pentan-2-ol] + O=Cc1ccccc1
- viscosity ([2]; 293.15 K): 3.97 ± 0.16 mPa·s
- mass density ([2]; 293.15 K): 809.3 ± 1 kg/m3
- viscosity ([2]; 298.15 K): 3.32 ± 0.13 mPa·s
- mass density ([2]; 298.15 K): 805.3 ± 1 kg/m3
- viscosity ([2]; 303.15 K): 2.81 ± 0.11 mPa·s
- mass density ([2]; 303.15 K): 801.2 ± 1 kg/m3
- viscosity ([2]; 308.15 K): 2.37 ± 0.1 mPa·s
- mass density ([2]; 308.15 K): 797 ± 1 kg/m3
- viscosity ([2]; 313.15 K): 1.99 ± 0.08 mPa·s
- mass density ([2]; 313.15 K): 792.7 ± 1 kg/m3
- viscosity ([2]; 318.15 K): 1.66 ± 0.07 mPa·s
- mass density ([2]; 318.15 K): 788.4 ± 1 kg/m3
- viscosity ([2]; 323.15 K): 1.39 ± 0.06 mPa·s
- mass density ([2]; 323.15 K): 784 ± 1 kg/m3

Compound: CC(C)O [propan-2-ol]
- viscosity ([1]; 293.15 K): 2.42 ± 0.1 mPa·s
- mass density ([1]; 293.15 K): 785.4 ± 1 kg/m3
- viscosity ([1]; 298.15 K): 2.08 ± 0.08 mPa·s
- mass density ([1]; 298.15 K): 781.1 ± 1 kg/m3
- viscosity ([1]; 303.15 K): 1.8 ± 0.07 mPa·s
- mass density ([1]; 303.15 K): 776.8 ± 1 kg/m3
- viscosity ([1]; 308.15 K): 1.56 ± 0.06 mPa·s
- mass density ([1]; 308.15 K): 772.4 ± 1 kg/m3
- viscosity ([1]; 313.15 K): 1.36 ± 0.06 mPa·s
- mass density ([1]; 313.15 K): 768 ± 1 kg/m3
- viscosity ([1]; 318.15 K): 1.19 ± 0.05 mPa·s
- mass density ([1]; 318.15 K): 763.4 ± 1 kg/m3
- viscosity ([1]; 323.15 K): 1.05 ± 0.04 mPa·s
- mass density ([1]; 323.15 K): 758.8 ± 1 kg/m3

Compound: CC(C)O [propan-2-ol] + O=Cc1ccccc1
- viscosity ([2]; 293.15 K): 2.42 ± 0.1 mPa·s
- mass density ([2]; 293.15 K): 785.4 ± 1 kg/m3
- viscosity ([2]; 298.15 K): 2.08 ± 0.08 mPa·s
- mass density ([2]; 298.15 K): 781.1 ± 1 kg/m3
- viscosity ([2]; 303.15 K): 1.8 ± 0.07 mPa·s
- mass density ([2]; 303.15 K): 776.8 ± 1 kg/m3
- viscosity ([2]; 308.15 K): 1.56 ± 0.06 mPa·s
- mass density ([2]; 308.15 K): 772.4 ± 1 kg/m3
- viscosity ([2]; 313.15 K): 1.36 ± 0.06 mPa·s
- mass density ([2]; 313.15 K): 768 ± 1 kg/m3
- viscosity ([2]; 318.15 K): 1.19 ± 0.05 mPa·s
- mass density ([2]; 318.15 K): 763.4 ± 1 kg/m3
- viscosity ([2]; 323.15 K): 1.05 ± 0.04 mPa·s
- mass density ([2]; 323.15 K): 758.8 ± 1 kg/m3
